# Like-named read-outs stand apart in the source and are kept apart here.
# Experiments:
# Experiment in all cases: Etest MIC of indicator carbapenems on MH II agar without/with PMBN
# Type in all cases: cell-based
# [1] = tested on: E. cloacae 9402034
# Procedure: (§1) The determinations of antibiotic MIC were carried out on solid culture media with the Etest® method. To do this, Etest® strips (bioMérieux, France) were used: • Etest® Imipenem IM 32, and • Etest® Ertapenem ETP 32, and also solid culture media, differing from one another by virtue of their non-inhibitory concentrations of PMBN.
# (§2) These solid culture media are prepared in Petri dishes (0=145 mm; V=50 ml) on a base of MH II Agar (Becton Dickinson®, United States), more or less supplemented with PMBN. The PMBN concentrations range from 0 up to concentrations equivalent to one fifth of the MIC of PMBN (⅕ MICPMBN).
# (§3) Using a swab and the Retro C80™ rota-plater (bioMérieux, France), the culture media were inoculated with the bacteria, originating from an inoculum of 0.5 McFarland, prepared in 0.85% NaCl solution from colonies subcultured the day before on MH II agar.
# (§4) The various Etest® strips are then deposited on the surface of the culture media. After 16 to 20 hours of incubation at 35° C., the MICS were read.
# (§5) To do this, imipenem and ertapenem were used as indicator carbapenems. Non-inhibitory concentrations of PMBN, equivalent to concentrations of one tenth ( 1/10), one eighth (⅛) and one fifth (⅕) of the MIC of PMBN, were applied.
# (§6) In the light of the MICPMBN values previously identified, very predominantly much higher than 300 μg/ml, the following standard concentrations were retained and applied to the bacterial strains to be tested: 50, 100, 150, 200 and 300 μg/ml.
# (§7) By way of indicator carbapenems according to the invention, in addition to imipenem (IM) and ertapenem (ETP), meropenem (MP) was also tested. Like the other two antibiotics, meropenem was used in the form of Etest® strips (Etest® Meropenem MP 32 from the company bioMérieux, France).
# (§8) The methods used to prepare the new culture media and to carry out the antibiotic-sensitivity tests are identical to those described above.
# [2] = tested on: E. coli 1204043
# Procedure: as §1, §2, §3, §4, §5, §6, §7, §8
# [3] = tested on: K. pneumoniae 1002015
# Procedure: as §1, §2, §3, §4, §5, §6, §7, §8
# [4] = tested on: K. pneumoniae 1204034
# Procedure: as §1, §2, §3, §4, §5, §6, §7, §8
# [5] = tested on: K. pneumoniae 0901027 (KPC-3 producer)
# Procedure: as §1, §2, §3, §4, §5
# [6] = tested on: K. pneumoniae 1012335 (OXA-48 producer)
# Procedure: as §1, §2, §3, §4, §5
structure (smiles),measurement,setting,value
"C[C@@H](O)[C@H]1C(=O)N2C(C(=O)O)=C(S[C@@H]3CN[C@H](C(=O)Nc4cccc(C(=O)O)c4)C3)[C@H](C)[C@H]12 [ETP, ertapenem]",MIC,"[1]; E. cloacae 9402034 (membrane impermeability), [PMBN] 0, Table 4a",> 32 µg/mL
same,MIC,"[1]; E. cloacae 9402034 (membrane impermeability), [PMBN] 100, Table 4a",> 32 µg/mL
same,MIC,"[1]; E. cloacae 9402034 (membrane impermeability), [PMBN] 200, Table 4a",12 µg/mL
same,MIC,"[1]; E. cloacae 9402034 (membrane impermeability), [PMBN] 300, Table 4a",12 µg/mL
same,MIC,"[1]; E. cloacae 9402034, [PMBN] 0, Table 3",64 µg/mL
same,MIC,"[1]; E. cloacae 9402034, [PMBN] MIC/5",16 µg/mL
same,MIC,"[1]; E. cloacae 9402034, [PMBN] MIC/8",16 µg/mL
same,MIC,"[1]; E. cloacae 9402034, [PMBN] MIC/10",16 µg/mL
same,MIC,"[2]; E. coli 1204043 (membrane impermeability), [PMBN] 0, Table 4a, in µg/mL",>32
same,MIC,"[2]; E. coli 1204043 (membrane impermeability), [PMBN] 100, Table 4a, in µg/mL",6
same,MIC,"[2]; E. coli 1204043 (membrane impermeability), [PMBN] 200, Table 4a, in µg/mL",2-4
same,MIC,"[2]; E. coli 1204043 (membrane impermeability), [PMBN] 300, Table 4a, in µg/mL",1.5
same,MIC,"[2]; E. coli 1204043, [PMBN] 0, Table 3, in µg/mL",32
same,MIC,"[2]; E. coli 1204043, [PMBN] MIC/5, in µg/mL",1
same,MIC,"[2]; E. coli 1204043, [PMBN] MIC/8, in µg/mL",2
same,MIC,"[2]; E. coli 1204043, [PMBN] MIC/10, in µg/mL",1
same,MIC,"[2]; Escherichia coli, 1204043, E. coli 1204043 (porin−), [PMBN] 0, Table 4, read-out: MIC",> 32 µg/mL
same,MIC,"[2]; Escherichia coli, 1204043, E. coli 1204043 (porin−), [PMBN] 150 μg/ml, Table 4, read-out: MIC",0.38 µg/mL
same,MIC,"[2]; Escherichia coli, 1204043, E. coli 1204043 (porin−), [PMBN] 200 μg/ml, Table 4, read-out: MIC",0.19 µg/mL
same,MIC,"[3]; K. pneumoniae 1002015, [PMBN] 0, Table 3",32 µg/mL
same,MIC,"[3]; K. pneumoniae 1002015, [PMBN] MIC/5",1 µg/mL
same,MIC,"[3]; K. pneumoniae 1002015, [PMBN] MIC/8",2 µg/mL
same,MIC,"[3]; K. pneumoniae 1002015, [PMBN] MIC/10",4 µg/mL
same,MIC,"[3]; Klebsiella pneumoniae, 1002015, K. pneumoniae 1002015 (porin−), [PMBN] 0, Table 4, read-out: MIC",4 µg/mL
same,MIC,"[3]; Klebsiella pneumoniae, 1002015, K. pneumoniae 1002015 (porin−), [PMBN] 150 μg/ml, Table 4, read-out: MIC",0.5 µg/mL
same,MIC,"[3]; Klebsiella pneumoniae, 1002015, K. pneumoniae 1002015 (porin−), [PMBN] 200 μg/ml, Table 4, read-out: MIC",0.38 µg/mL
same,MIC,"[4]; K. pneumoniae 1204034 (membrane impermeability), [PMBN] 0, Table 4a",> 32 µg/mL
same,MIC,"[4]; K. pneumoniae 1204034 (membrane impermeability), [PMBN] 100, Table 4a",12 µg/mL
same,MIC,"[4]; K. pneumoniae 1204034 (membrane impermeability), [PMBN] 200, Table 4a",3 µg/mL
same,MIC,"[4]; K. pneumoniae 1204034 (membrane impermeability), [PMBN] 300, Table 4a",2 µg/mL
same,MIC,"[4]; K. pneumoniae 1204034, [PMBN] 0, Table 3",64 µg/mL
same,MIC,"[4]; K. pneumoniae 1204034, [PMBN] MIC/5",4 µg/mL
same,MIC,"[4]; K. pneumoniae 1204034, [PMBN] MIC/8",4 µg/mL
same,MIC,"[4]; K. pneumoniae 1204034, [PMBN] MIC/10",8 µg/mL
same,MIC,"[4]; Klebsiella pneumoniae, 1204034, K. pneumoniae 1204034 (porin−), [PMBN] 0, Table 4, read-out: MIC",> 32 µg/mL
same,MIC,"[4]; Klebsiella pneumoniae, 1204034, K. pneumoniae 1204034 (porin−), [PMBN] 150 μg/ml, Table 4, read-out: MIC",1.5 µg/mL
same,MIC,"[4]; Klebsiella pneumoniae, 1204034, K. pneumoniae 1204034 (porin−), [PMBN] 200 μg/ml, Table 4, read-out: MIC",1 µg/mL
same,MIC,[5]; [PMBN] 0,16 µg/mL
same,MIC,[5]; [PMBN] MIC/5,64 µg/mL
same,MIC,[5]; [PMBN] MIC/8,64 µg/mL
same,MIC,[5]; [PMBN] MIC/10,64 µg/mL
same,MIC,[6]; [PMBN] 0,2 µg/mL
same,MIC,[6]; [PMBN] MIC/5,4 µg/mL
same,MIC,[6]; [PMBN] MIC/8,4 µg/mL
same,MIC,[6]; [PMBN] MIC/10,4 µg/mL

# Reference: patent publication US20180155757A1, “IDENTIFICATION OF BACTERIA THAT ARE RESISTANT TO CARBAPENEMS BY MEMBRANE IMPERVIOUSNESS” (BIOMÉRIEUX, priority 2015, published 2018)
